Data taken from US20150031655A1, “COMBINATION OF LIVER X RECEPTOR MODULATOR AND ESTROGEN RECEPTOR MODULATOR FOR THE TREATMENT OF AGE-RELATED DISEASES” (UNIVERSITY OF NORTH DAKOTA, priority 2011, published 2015).

What was measured:
[1] = biological target: T1, ERα (Homo sapiens, UniProt P03372); experiment: Western blot of ERα levels in the nucleus (nuclear translocation), SH-SY5Y cells; format: cell-based; conditions: 24 h, treatment alone vs control
T1 construct: endogenous in cells; host or cells: SH-SY5Y human neuroblastoma cells
T1 sequence (P03372 1-595): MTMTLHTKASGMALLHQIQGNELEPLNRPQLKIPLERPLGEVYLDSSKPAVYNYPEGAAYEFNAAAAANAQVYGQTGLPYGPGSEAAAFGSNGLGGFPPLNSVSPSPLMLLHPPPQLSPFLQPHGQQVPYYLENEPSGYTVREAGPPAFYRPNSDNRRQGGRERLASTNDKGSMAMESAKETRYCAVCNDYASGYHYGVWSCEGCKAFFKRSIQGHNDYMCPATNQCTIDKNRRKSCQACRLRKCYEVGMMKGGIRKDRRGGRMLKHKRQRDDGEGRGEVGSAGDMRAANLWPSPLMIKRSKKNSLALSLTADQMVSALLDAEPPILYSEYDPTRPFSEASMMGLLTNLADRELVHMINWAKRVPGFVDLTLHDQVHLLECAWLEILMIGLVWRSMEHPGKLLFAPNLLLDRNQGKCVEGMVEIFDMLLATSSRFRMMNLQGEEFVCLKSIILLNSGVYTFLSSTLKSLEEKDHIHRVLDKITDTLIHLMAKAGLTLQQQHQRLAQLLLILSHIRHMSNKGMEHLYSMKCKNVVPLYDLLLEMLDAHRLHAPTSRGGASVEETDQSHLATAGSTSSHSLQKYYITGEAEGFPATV
Method: (§1) Human neuroblastoma SH-SY5Y cells were grown in DMEM/F12 medium containing 10% fetal bovine serum (FBS) and 1% antibiotic/antimycotic mix. Cells were maintained at 37° C. in a saturated humidity atmosphere containing 95% air and 5% CO2.

[2] = test system: TH promoter; experiment: Dual-luciferase TH promoter assay; format: cell-based, human; conditions: SH-SY5Y transfected with TH promoter-luciferase, 24 h
Method: Constructs encoding ERE and TH promoter conjugated to the firefly luciferase gene were used in the study. Human neuroblastoma SH-SY5Y cells were plated in 96-well plates at a density of 2×10^4 cells/well. The cells were transfected when 80% confluent with 0.25 μg of either ERE-firefly Luciferase reporter construct, LXRE-firefly Luciferase reporter construct, or TH promotor-firefly Luciferase promoter construct. Respective non-inducible reporter constructs containing constitutively expressing Renilla luciferase were used as negative internal controls. Constitutively expressing GFP constructs were used as positive control to determine transfection efficiency. Cells were incubated for 24 hours with Opti-MEM serum free medium (Invitrogen, Carlsbad, Calif.) containing the reporter constructs dissolved in transfection reagent. After 24 hours the medium was changed and the cells were incubated in normal DMEM/F12 medium containing 10% FBS and cells were treated with the different treatment regimens. The cells were treated in triplicate and harvested 24 hours later and subjected to dual-luciferases assay. The dual-luciferase assay was performed using a “Dual-Luciferase Reporter Assay System” from Promega (Madison, Wis.). The luminescence recorded is expressed as Relative Luminescence Units (RLU) and normalized to per mg protein. Unit value was assigned to control and the magnitude of differences among the samples is expressed relative to the unit value of control cells.

[3] = test system: ERE-mediated transcription; experiment: Dual-luciferase ERE reporter assay (ER-mediated transcription); format: cell-based, human; conditions: SH-SY5Y transfected with ERE-luciferase, 24 h
Method: Constructs encoding ERE and TH promoter conjugated to the firefly luciferase gene were used in the study. Human neuroblastoma SH-SY5Y cells were plated in 96-well plates at a density of 2×10^4 cells/well.
The cells were transfected when 80% confluent with 0.25 μg of either ERE-firefly Luciferase reporter construct, LXRE-firefly Luciferase reporter construct, or TH promotor-firefly Luciferase promoter construct. Respective non-inducible reporter constructs containing constitutively expressing Renilla luciferase were used as negative internal controls. Constitutively expressing GFP constructs were used as positive control to determine transfection efficiency.
Cells were incubated for 24 hours with Opti-MEM serum free medium (Invitrogen, Carlsbad, Calif.) containing the reporter constructs dissolved in transfection reagent. After 24 hours the medium was changed and the cells were incubated in normal DMEM/F12 medium containing 10% FBS and cells were treated with the different treatment regimens.
The cells were treated in triplicate and harvested 24 hours later and subjected to dual-luciferases assay. The dual-luciferase assay was performed using a “Dual-Luciferase Reporter Assay System” from Promega (Madison, Wis.). The luminescence recorded is expressed as Relative Luminescence Units (RLU) and normalized to per mg protein. […]

[4] = test system: ERα/β; experiment: EMSA, binding of nuclear ER to probe for the ERE half site in the TH promoter; format: cell-based, human; conditions: nuclear extracts of treated SH-SY5Y, treatment alone vs control
[5] = test system: TNF-α; experiment: TNF-α levels in ARPE-19 cells; format: cell-based; conditions: ARPE-19, 24 h, 10 μM, alone vs control
[6] = biological target: T2, ERβ (Homo sapiens, UniProt Q92731); experiment: Western blot of ERβ levels in the nucleus (nuclear translocation), SH-SY5Y cells; format: cell-based; conditions: 24 h, treatment alone vs control
T2 construct: endogenous in cells; host or cells: SH-SY5Y human neuroblastoma cells
Method: as §1
Treated SH-SY5Y cells were washed with PBS and trypsinized to collect the cells and centrifuged at 5000 g. The pellet was washed again with PBS and homogenized in NE-PER tissue protein extraction reagent (Thermo Scientific, Rockford, Ill.) supplemented with protease and phosphatase inhibitors. Protein concentrations from the cytosolic and nuclear homogenates were determined with BCA protein assay.
Proteins (10 μg) were separated on SDS-PAGE gels, transferred to a polyvinylidene difluoride membrane (BioRad, Hercules, Calif.), and incubated with the following monoclonal antibodies: anti-TH mouse antibody (1:1000; Sigma Aldrich, Saint Louis, Mo.), anti-α-synuclein mouse antibody (1:500; Chemicon, Temecula, Calif.), anti-ERα rabbit antibody (1:500; Abcam, Cambridge, Mass.), anti-ERβ rabbit antibody (1:200; Upstate, Lake Placid, N.Y.), anti-LXRα rabbit antibody (1:500; Abcam, Cambridge, Mass.), anti-LXRβ mouse antibody (1:500; Abcam, Cambridge, Mass.).
β-actin and Lamin A were used as a gel loading control for cytosolic homogenates and nuclear homogenates respectively. The blots were developed with enhanced chemiluminescence (Immmun-star HRP chemiluminescent kit, Bio-Rad, Hercules, Calif.). Bands were visualized on a polyvinylidene difluoride membrane and analyzed by LabWorks 4.5 software on a UVP Bioimaging System (Upland, Calif.). Quantification of results was performed by densitometry and the results analyzed as total integrated densitometric values (arbitrary units).

[7] = test system: ARPE-19 cells; format: cell-based
Method: ARPE-19 cells were treated with 0, 10 or 25 μM 27-OHC for 24 hours.

T2 sequence (Q92731 whole entry): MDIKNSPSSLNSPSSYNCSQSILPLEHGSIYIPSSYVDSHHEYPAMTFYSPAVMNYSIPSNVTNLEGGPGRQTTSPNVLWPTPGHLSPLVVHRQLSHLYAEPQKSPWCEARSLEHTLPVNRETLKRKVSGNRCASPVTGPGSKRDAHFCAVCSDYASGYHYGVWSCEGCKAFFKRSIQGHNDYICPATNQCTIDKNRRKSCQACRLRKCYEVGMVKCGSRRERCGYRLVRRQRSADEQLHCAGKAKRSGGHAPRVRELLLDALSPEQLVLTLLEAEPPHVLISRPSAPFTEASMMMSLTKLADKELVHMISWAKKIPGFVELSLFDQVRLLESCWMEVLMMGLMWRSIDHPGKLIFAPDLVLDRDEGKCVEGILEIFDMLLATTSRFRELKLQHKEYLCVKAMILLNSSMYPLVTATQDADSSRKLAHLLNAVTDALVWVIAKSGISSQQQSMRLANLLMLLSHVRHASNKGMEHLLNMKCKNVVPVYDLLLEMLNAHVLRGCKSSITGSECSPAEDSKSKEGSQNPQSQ

Question: What does the source list for `C[C@@H](CO)CCC[C@@H](C)[C@H]1CC[C@H]2[C@@H]3CC=C4C[C@@H](O)CC[C@]4(C)[C@H]3CC[C@]12C` [27-OHC, 27-hydroxycholesterol]?
Answer: nuclear translocation / nuclear levels of ERα [1]: decrease; reduction of TH promoter activity [2]: ~4 fold; decrease of ER-mediated transcription [3]: ~5 fold; binding of nuclear ER to the DNA probe corresponding to the ERE-half site on the TH promoter [4]: lower binding; TNF-α levels [5]: increases; nuclear translocation / nuclear levels of ERβ [6]: decrease; toxicity to RPE cells [7]: toxic; Aβ peptide production ([7]; ARPE-19, 0, 10 or 25 μM, 24 hours): dose-dependently increased; Ca^2+ homeostasis ([7]; ARPE-19, 10 or 25 μM, 24 hours): dyshomeostasis; ROS generation ([7]; ARPE-19, 10 or 25 μM, 24 hours): ROS generation; glutathione ([7]; ARPE-19, 10 or 25 μM, 24 hours): glutathione depletion; levels of ER stress specific markers caspase 12 and gadd153 ([7]; ARPE-19, 10 or 25 μM, 24 hours): increased; levels of NFκB and heme-oxygenase 1 (HO-1) ([7]; ARPE-19, 10 or 25 μM, 24 hours): increased; mitochondrial membrane potential ([7]; ARPE-19, 10 or 25 μM, 24 hours): reduced
